Read-outs that look alike come from different tables or passages of the source. Square brackets hold non-standard residues; d marks the D form. Peptide text beside a SMILES is read from it. sY = N[C@@H](Cc1ccc(OS(=O)(=O)O)cc1)C(=O)O; pGlu = O=C1CC[C@@H](C(=O)O)N1
Key:
[1] = cancer patients; intravenous bolus 1 nanogram/kg
From the text: The average dosages for Cerulitide were from 0.5 nanograms/kg body weight (i.v.) to 300 nonograms/kg body weight (intramusculary), depending upon the treated pains, as set forth in the following examples.

Question: Which Side-effects [1] does the source give for `CSCC[C@H](NC(=O)[C@H](Cc1c[nH]c2ccccc12)NC(=O)CNC(=O)[C@@H](NC(=O)[C@H](Cc1ccc(OS(=O)(=O)O)cc1)NC(=O)[C@H](CC(=O)O)NC(=O)[C@H](CCC(N)=O)NC(=O)[C@@H]1CCC(=O)N1)[C@@H](C)O)C(=O)N[C@@H](CC(=O)O)C(=O)N[C@@H](Cc1ccccc1)C(N)=O` [Ceruletide] ([pGlu]QD[sY]TGWMDF-NH2) here?
Answer: None

Question: What about the Side-effects (intramuscular 0.05 micrograms/kg, first injection) of the same compound?
Answer: None

Question: What about the Side-effects (intramuscular 0.1 micrograms/kg) of the same compound?
Answer: None and Burning sensation at the injection site and pain sensation at the injection site

Question: And the Side-effects (second intramuscular injection 0.05 micrograms/kg)?
Answer: None

Reference: patent US4351829A, “Use of polypeptides as analgesic drugs” (Farmitalia Carlo Erba Spa, priority 1980, dated 1982)
